Experiment: gradient 5% acetonitrile 3 min, to 50% in 2 min, to 85% in 15 min, held 3 min, 100 µL/min
Details: column: Zorbax Extend-C18 2.1 x 50 mm; eluents: water / acetonitrile, 0.1% formic acid
Method in brief: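 Standards, all pure, were combined into mixtures of ~100 molecules and run at 100 μL/min on a Zorbax Extend-C18 column (2.1 × 50 mm, 1.8 μm) with water and acetonitrile, each containing 0.1% formic acid. A coupled quadrupole time-of-flight mass spectrometer operated in positive and negative ionization mode. Retention time values come from computationally picked adduct peaks, each inspected manually.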

Structure (SMILES) | RP-LC retention time
CCOC(=O)C1CCN(S(=O)(=O)c2cccc(-c3nc(-c4ccccc4)no3)c2)CC1 | 1210 s
CN(C)CCC1c2ccc(Cl)cc2CCc2cccnc21 (stereo not drawn) | 666 s
COC(=O)c1cnn(-c2ccc(C)cc2)c1N | 704 s
CCN(CC)c1ccc(C(=O)N2CCc3nc[nH]c3C2)cc1 | 550 s
O=C(c1ccn[nH]1)N1C[C@@H]2C(=O)N(CCc3ccccc3)C(=O)[C@@H]2C1 | 656 s
Cn1c(N2CCCC(C(=O)NCC3CCN(Cc4cccc(F)c4)CC3)C2)cc(=O)n(C)c1=O (stereo not drawn) | 575 s
Cc1ccccc1CNC(=O)C1CCCN(c2nnc(C)c3c(C)n(-c4ccc(Cl)cc4)nc23)C1 (stereo not drawn) | 784 s
Cc1ccc(C)c(NC(=O)c2cn(-c3ncccc3-c3nc(C4CC4)no3)cn2)c1 | 973 s
Cc1ccccc1C(=O)N1CCC2(CC1)NCc1ccccc1-n1ccnc12 | 609 s
COc1ccc(C2(C(=O)N3CCC(n4c(C)cnc4C4CCC4)CC3)CC2)cc1 | 662 s
CCn1cc(-c2nc(CC(=O)NCc3cccc(Cl)c3)cs2)c2cccnc21 | 903 s
CCOC(=O)Cc1ccc(NC(=O)N2CCN(c3nc4ccccc4nc3C(F)(F)F)CC2)cc1 | 1080 s
Cc1cccc(N2CC(C(=O)NC3CC3)CC2=O)c1 (stereo not drawn) | 671 s
O=C(c1ccc(Cl)cc1)N1CCN(S(=O)(=O)c2cc3c4c(c2)CCC(=O)N4CCC3)CC1 | 838 s
Cc1ccc(NC(=O)N2CCC(c3cc(N)on3)CC2)cc1C | 728 s
Cc1cc(C(=O)Nc2ccc(-c3nc4ccccc4o3)cc2)c(C)o1 | 1020 s
CC(C)NC(=O)c1ccc(OCC2CCCN(C(=O)Cc3ccc(Cl)cc3)C2)cc1 (stereo not drawn) | 918 s
O=C(CC1CCCCC1)N1CCN(c2nc(CN3CCCCC3)cs2)CC1 | 675 s
CCOc1ccc(N2C=C(C#N)S(=O)(=O)c3ccccc32)cc1 | 943 s
Clc1ccc(Nc2c(-c3ccc(Cl)cc3)nc3cnccn23)cc1 | 1040 s
CN(C)S(=O)(=O)c1ccc2c(c1)cc(C(=O)NCCc1c[nH]c3ccccc13)n2C | 895 s
CCCn1ccc2sc(C)c(C(=O)NCc3ccc(F)cc3F)c2c1=O | 925 s
CCC(CC)C(=O)N1CCN(c2nc3cccnc3n(CC)c2=O)CC1 | 942 s
CCOC(=O)c1nc(NCc2ccc(Cl)cc2)c2ccccc2n1 | 868 s
CCCCN(Cc1nc2nc(C)cc(C)n2n1)C(=O)c1ccccc1 | 757 s
CCCc1nc(-c2c(C)cc(C)nc2NC(=O)c2ccccc2F)no1 | 883 s
O=C(Cn1nc2n(c1=O)CCCCC2)NCc1ccc(F)cc1 | 671 s
COc1ccc(N2CCN(c3ccc(-c4nc(-c5cccc(F)c5)no4)cn3)CC2)cc1 | 1310 s

Structure (SMILES) | RP-LC retention time
Cc1oc(C2CCN(S(=O)(=O)c3ccccc3)CC2)nc1C(=O)N1CCOCC1 | 758 s
O=C(NCc1ccccc1OC(F)(F)F)c1ccc(N2CCOCC2)nn1 | 777 s
O=C(Cc1cccs1)NC1CCN(c2cc(-c3ccccc3)[nH]n2)C1 (stereo not drawn) | 673 s
CCC(=O)N(CCOC)CC(=O)N1CCc2sccc2C1COc1ccccc1F (stereo not drawn) | 831 s
CC1=C(c2ccc(C(C)C)cc2)S(=O)(=O)N=C1N1CCC(NC(=O)CCC(C)C)CC1 | 1020 s
Fc1ccccc1N1CCN(Cc2nc(-c3ccc(N4CCCCC4)nc3)no2)CC1 | 972 s
O=C(NC1CC1)C1CCN(C(=O)c2cc(-c3ccncc3)n[nH]2)CC1 | 546 s
Cc1ccsc1CCNC(=O)C1CCN(S(=O)(=O)c2c(C)nn(-c3ccccc3)c2C)CC1 | 955 s
CCN(C(=O)Nc1ccccc1C(F)(F)F)c1nc(-c2ccc(C)cc2)cs1 | 576 s
CCOc1ccc(-c2nc3ncccn3c2NCc2ccc(F)cc2)cc1 | 759 s
CC(=O)NCc1nc(-c2ccc3oc(-c4ccccc4)nc3c2)no1 | 805 s
Cc1ccc(C)c(Cn2nc3ccc(S(=O)(=O)N4CCSCC4)cn3c2=O)c1 | 996 s
CC1CCN(CCNC(=O)C2CCN(S(=O)(=O)c3ccc4c(c3)sc(=O)n4C)CC2)CC1 | 622 s
Cc1ccc(N2C=C(C(=O)N3CCOCC3)S(=O)(=O)c3ccc(Cl)cc32)cc1F | 886 s
CCCn1cc(CCNS(=O)(=O)c2cccc(C(F)(F)F)c2)c2cccnc21 | 904 s
CCN(CC)S(=O)(=O)c1ccc2c(c1)N(CC(=O)NC)C(=O)C1CCCCN21 (stereo not drawn) | 753 s
Cc1ccc(CNC(=O)N2CCCC(C)(C(=O)NCc3ccc(C)cc3)C2)cc1 (stereo not drawn) | 947 s
COCCN1CCC(N2CCN(C(=O)c3ccsc3)CC2)C1=O (stereo not drawn) | 515 s
COc1cccc(CN2CCC3(CC2)C(OC)CN3c2cccc(F)c2)n1 (stereo not drawn) | 777 s
Cc1nc(-c2csc(S(=O)(=O)N3CCC(C(=O)NCc4ccc(F)cc4)CC3)c2)no1 | 981 s
Cc1nc(CNC(=O)[C@H]2CCCN2S(=O)(=O)c2cccc(C(F)(F)F)c2)cs1 | 787 s
CCn1ccc(C(=O)N2CCN(c3ccc(=O)n(-c4ccc(Cl)cc4)n3)CC2)n1 | 753 s
CCN1C(=O)CCc2cc(NC(=O)COc3ccc(F)cc3)ccc21 | 801 s
CN(CCCNC(=O)C1CCN(c2nnc3ccc(Cl)cn23)CC1)c1ccccc1 | 606 s
COc1ccc(Cl)cc1C(=O)Nc1ccc2c(c1)C(=O)NCCO2 | 951 s
COc1ccc(-c2c(C)noc2NC(C)=O)cc1S(=O)(=O)Nc1ccc(F)cc1 | 736 s
COc1cc(Cl)ccc1C(=O)N1CCC(COc2ccc(C(=O)NC(C)C)cc2)CC1 | 801 s

The next lines start with the values.

RP-LC retention time | Structure (SMILES)
993 s | CC1CCN(c2ccc(-c3noc(CNC(=O)c4cccs4)n3)cc2)CC1
826 s | Cc1[nH]c2ccccc2c1CC(=O)NCCc1c[nH]c2ccccc12
1030 s | C=Cc1ccc(COC(=O)C2=CN(CC)S(=O)(=O)N=C2C)cc1
743 s | O=C(C1CC1)N1CCc2sc(S(=O)(=O)Nc3ccc(N4CCOCC4)cc3)cc2C1
648 s | Cc1nc(C(=O)Nc2ccccc2)c(C)n1C1CCN(S(C)(=O)=O)CC1
1190 s | COc1ccccc1-c1nnc(-c2ccc(Cl)c(S(=O)(=O)N3CCC(C)CC3)c2)o1
929 s | CCn1nccc1-c1cccc(-c2noc(C(C)NC(=O)c3ccccc3)n2)c1 (stereo not drawn)
726 s | CCN(CC)C(=O)c1ccc(-c2nc3cc(NS(=O)(=O)c4ccc(C)c(C)c4)ccc3n2C)cc1
689 s | O=C(C1CCCC1)N1CCn2c(nnc2-c2ccccc2)C1
965 s | CC1Cc2ccccc2N1C(=O)CC1CCN(S(=O)(=O)c2ccc3c(c2)oc(=O)n3C)CC1 (stereo not drawn)
846 s | CC(C)NC(=O)c1ccc(OCC2CCCN(C(=O)c3cccc(F)c3)C2)cc1 (stereo not drawn)
646 s | CNC(=O)C1CCN(c2nc3ncn(CC(=O)Nc4c(C)cc(C)cc4C)c(=O)c3s2)CC1
699 s | Cc1ccc(CNC(=O)C2CCN(S(=O)(=O)c3cc(C(=O)N4CCCC4)n(C)c3)CC2)o1
708 s | COc1ccc(NC(=O)c2[nH]c3cc(C)sc3c2CN2CCCC2)c(C)c1
574 s | CNC(=O)[C@@H]1C[C@@H](O)CN1C1CCN(C(=O)CC2=CCCCC2)CC1
855 s | CC1CCN(C(=O)C2CC(=O)N(CCc3c[nH]c4ccc(Cl)cc34)C2)CC1 (stereo not drawn)
618 s | NC(=O)C1CCN(Cc2nc(Cn3ccn4nc(-c5ccccc5)cc4c3=O)no2)CC1

RP-LC retention time | Structure (SMILES)
1030 s | C=CCNC(=O)c1cn(CCC)nc1S(=O)(=O)N1CCN(c2ccccc2OCC)CC1
839 s | O=C(NC1CCN(c2cc(-c3ccc(Cl)cc3)[nH]n2)C1)c1ccc(F)c(F)c1 (stereo not drawn)
1190 s | O=C(Nc1cccc(Br)c1)C1CCN(c2nccnc2Sc2ccccc2)CC1
554 s | O=C(CN1CCCc2nc(C3CC3)ncc2C1=O)NCCN1CCOCC1
1140 s | CCCN1C(=O)COc2ccc(-c3noc(-c4ccc(OC)cc4)n3)cc21
1030 s | Cc1nc2c(sc3nc(-c4ccccc4)ccc32)c(=O)n1CC(=O)NCc1ccccc1Cl
810 s | CCN(CC)C(=O)c1cnc2snc(C)c2c1N1CCC(C(=O)Nc2cc(OC)c(OC)c(OC)c2)CC1
796 s | CCOC(=O)C1CCCN(c2c(NCC3COc4ccccc4O3)c(=O)c2=O)C1 (stereo not drawn)
704 s | Cc1c(Cl)ccc2c(=O)c3c([nH]c12)CCN(CC(=O)Nc1cccc(Cl)c1)C3
530 s | CNC(=O)[C@@H]1CN(S(=O)(=O)c2cnc[nH]2)C[C@H]1c1n[nH]c(C)n1
666 s | CC(C)C(NC(=O)c1ccsc1)C(=O)Nc1nc2ccccc2[nH]1 (stereo not drawn)
708 s | CC(C)COc1cc(=O)n2c(c1C(=O)NCC1CC1)CCCCC2
601 s | Cc1cn2c(=O)c(S(=O)(=O)N3CCN(c4ccccn4)CC3)c(C)nc2s1
706 s | O=c1ccc(N2CCCC(NS(=O)(=O)c3ccc(F)c(Cl)c3)C2)n[nH]1 (stereo not drawn)
1090 s | COc1ccc(S(=O)(=O)N2CCC(c3noc(-c4ccccc4C)n3)CC2)cc1OC
788 s | O=C(CN1CCN(Cc2ccccc2)C1=O)N1CCN(c2ccccc2)CC1

From the METLIN SMRT retention time set (Domingo-Almenara et al. 2019)
